Results published in PubChem BioAssay AID602267 (Broad Institute, 2012).
Calls of active or inactive are those of the source.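 Rule for the calls: active = signal falls with dose and the fitted half-maximal concentration is at or below twice the top valid tested dose; inconclusive = flat curve with 30 to 70% inhibition, or poor fit; inactive = wrong direction, flat within 30%, or potency beyond limit.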

The compounds below were run against Golgi-associated PDZ and coiled-coil motif-containing protein (Homo sapiens) (UniProt Q9HD26) (assay: CAL PDZ domain peptide-binding inhibitors, dose response, biochemical, fluorescence polarization, untagged CAL PDZ, cherry-pick (AID 602267;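 for activity change, negative = inhibition: 0% = DMSO neutral wells and -100% = excess unlabeled competitor peptide wells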)). Details: purified CAL PDZ, TMR-peptide fluorescence polarization, 1 h.

Row | SMILES | AC50 [µM]
1 | CCNc1ccc2noc3c2c1C(=O)c1ccccc1-3 | 4.74

Same assay, conditions: purified CAL PDZ, TMR-peptide fluorescence polarization, 1 h; at 16 µM (top of the series)

Row | SMILES | activity change, negative = inhibition
2 | O=C(c1ccccc1)C(c1ccccc1)c1ccccc1 | inactive

Same assay, conditions: purified CAL PDZ, TMR-peptide fluorescence polarization, 1 h; at 50 µM (top of the series)

Row | SMILES | activity change, negative = inhibition
3 | O=C(c1ccccc1)C(CCc1ccccn1)CCc1ccccn1 | inactive
4 | Cc1cc(C)nc(CCNC(=O)c2cc(COc3c(C)cccc3C)on2)n1 | inactive
5 | COc1ccc(N2CCN(C3CCCN(Cc4ccc(F)cc4)C3)CC2)cc1 (centres undefined) | inactive
6 | O=C(NC1(C(F)(F)F)NC(=O)N(C2CCCCC2)C1=O)C1CC1 (centres undefined) | inactive
7 | CCOc1ccc(N(CC(=O)N2CCN(Cc3ccccc3)CC2)S(C)(=O)=O)cc1 | inactive
8 | CC(C)Oc1ccc(C(=O)Nc2ccc(S(=O)(=O)N3CCN(C)CC3)cc2)cc1 | inactive
9 | O=C(NNC(=O)c1ccc(Cl)c(Cl)c1)c1cccnc1 | inactive
10 | CC1CCCC(C)N1/N=C/c1ccc(N(C)C)cc1 (centres undefined) | inactive
11 | CCN(CC)S(=O)(=O)c1ccc2nc(NC(=O)c3ccco3)sc2c1 | inactive
12 | O=C(OCC(=O)N1CCc2ccccc2C1)c1cccnc1Cl | inactive
13 | Cc1cccc(N=Nc2c(O)[nH]c3ccc(F)cc23)c1 | inactive
14 | O=C1CSC(=Nc2ccccc2Cl)N1 | inactive
15 | COc1ccc2ccccc2c1CN(C)Cc1ccccc1 | inactive
16 | CCC(=O)N1CCC(C(N)=O)(N2CCCCC2)CC1 | inactive
17 | COc1ccc(/C=N/Nc2cc(C)nc3ccc(OC)cc23)c(OC)c1 | inactive
18 | CCCn1cnc2c(SCCc3ccccc3)nc(N)nc21 | inactive
19 | Nc1ncnc2c1C(c1ccccc1)c1c(ccc3ccccc13)O2 (centres undefined) | inactive
20 | Cc1cccc(C(=O)Nc2nnc(COc3ccccc3)s2)c1 | inactive
21 | O=C(NCCCn1ccnc1)c1ccccc1F | inactive

Row | SMILES | activity change, negative = inhibition
22 | CCNC(=S)N1CCc2cc(OC)c(OC)cc2C1COc1ccc(OC)cc1 (centres undefined) | inactive
23 | CN(C)c1ccc(C(=O)OCC(=O)NC2CCCCCC2)cc1 | inactive
24 | CCN1C(=O)CS/C1=N\S(=O)(=O)c1ccc(Cl)cc1 | inactive
25 | O=C(NCc1cccnc1)c1ccc(Cn2c(=S)[nH]c3ccc(Br)cc3c2=O)cc1 | inactive
26 | COc1ccccc1NC(=O)N(c1c(N)n(Cc2ccccc2)c(=O)[nH]c1=O)C1CCCC1 | inactive
27 | CCOC(=O)N1CCN(Cc2nc3c(c(=O)n(C)c(=O)n3C)n2Cc2cccc(C)c2)CC1 | inactive
28 | Cc1c(NC(=O)CN2CCC(C(N)=O)CC2)cccc1[N+](=O)[O-] | inactive
29 | Cc1c(Cl)c(C(=O)N2CCCC2)nn1C | inactive
30 | COc1ccc(CC(=O)N2CCC(CCC(=O)Nc3ccccc3)CC2)cc1 | inactive
31 | O=C(NC(Cc1c[nH]c2ccccc12)C(=O)O)/C(=C/c1ccc(F)cc1)NC(=O)c1ccccc1 (centres undefined) | inactive
32 | C=CCN1C(=O)/C(=C/c2ccsc2)SC1=S | inactive
33 | CS(=O)(=O)N1CCN(C(=O)c2ccc3c(c2)OCCO3)CC1 | inactive
34 | CSc1ccccc1NC(=O)C1CC(c2c(F)cccc2Cl)=NO1 (centres undefined) | inactive
35 | CC(=Nc1ccccc1O)c1sc2ccccc2c1O | inactive
36 | O=C1CN(C(=O)CC2C(=O)NCCN2Cc2ccccc2C(F)(F)F)CCN1 (centres undefined) | inactive
37 | C/C(=N\NC(=O)C(O)c1ccccc1)c1ccc(Cl)s1 (centres undefined) | inactive
38 | Cc1cc(C)c(C(=O)N2CCC3(CC2)OCCO3)c(C)c1 | inactive
39 | COC(=O)N/N=C/c1sc(N2CCCCC2)nc1-c1cccs1 | inactive
